This is an account of results in patent US20130259986A1, “COMPOSITIONS AND METHODS FOR INHIBITING PRECIPITATION OF DYES IN A BEVERAGE” (Kraft Foods Global Brands LLC, priority 2012, published 2013).

Data set [1] can be described thus: Example 5: precipitation from 90× electrolyte beverage product with 0.45 wt % Red 40 and added benzaldehyde solution or propylene glycol. The data set is classed as physicochemical. The protocol: A 90× electrolyte beverage product was made without flavor containing 0.45 wt % Red 40, and a 3.0% benzaldehyde solution was made with propylene glycol. The benzaldehyde solution was then added back to the flavorless base at various levels up to 10%. As a control, the same variants were made without benzaldehyde solution, but with 100% propylene glycol, to confirm that any precipitation was directly due to the benzaldehdye and not propylene glycol. The formulations are as follows: […]

Data set [2] is described as follows: Observation of precipitate in model solutions of azo-dye, salt, benzaldehyde and water. The data set is classed as physicochemical. Particulars: for precipitation of a single azo-dye from solutions: solutions with (1) blends of two or more salts, (2) sweetener, (3) fiber (inulin) with sodium chloride; for precipitate in a solution of the substance and water: substance and water only. The source says: It was observed that many solutions fail to keep a single azo-dye species stable in the presence of electrolyte ions. For example, the azo-dye (Yellow 5, Yellow 6, or Red 40) precipitated from solutions containing the following: (1) blends of two or more salts (including potassium chloride, tripotassium phosphate, sodium chloride, and magnesium chloride) with a single azo-dye; (2) sweetener (including sucrose, fructose, and raw honey) and a single azo-dye; and (3) fiber (such as inulin) with sodium chloride and a single azo-dye.
Such precipitate is believed to be crystals of the azo-dye or possibly even co-crystals of the azo-dye with sodium chloride, sodium ions, chloride ions, or sodium and chloride ions. It is believed that the presence of an ion (not limited to sodium and/or chloride) creates an unfavorable environment for the azo-dye to exist in and causes the azo-dye to precipitate or crystallize. However, this crystallization or precipitation is not observed when levels of salt or azo-dye are below the threshold for the reaction to occur.
While wishing to not be bound by theory, a solution of benzaldehyde, salt, Red 40, and water causes precipitation through a different mechanism when compared to precipitate found from solutions of salt, an azo-dye, and water. […] Such precipitate is believed to be due the complexation of salt, Red 40, and benzaldehyde. This complexation may occur due to the thermodynamic unfavorability of all three components to exist in solution with one another. The precipitation found in this system appears to be more sediment-like rather than crystal-like precipitate found in a solution of Red 40, salt, and water. However, crystals or co-crystals may exist within the salt, Red 40, and benzaldehyde complexation and this complexation is not observed when levels of salt, azo-dye, or benzaldehyde are below the threshold for the reaction to occur.

The mark [3] stands for this setting: 4 % added to 90 % electrolyte base (0.45 wt % Red 40), 0.12% benzaldehyde for the benzaldehyde solution.
The mark [4] stands for this setting: 6 % added to 90 % electrolyte base (0.45 wt % Red 40), 0.18% benzaldehyde for the benzaldehyde solution.
The mark [5] stands for this setting: 8 % added to 90 % electrolyte base (0.45 wt % Red 40), 0.24% benzaldehyde for the benzaldehyde solution.
[6] abbreviates: 10 % added to 90 % electrolyte base (0.45 wt % Red 40), 0.3% benzaldehyde for the benzaldehyde solution.

On to `CC(O)CO` (stereo not drawn) [PG 100%, Propylene Glycol], for which the “Observations after 2 months at 70 F. (room temp)” value (“Observations after 2 months” below) in data set [1] (0.1 % added to 90 % electrolyte base (0.45 wt % Red 40)), in data set [1] (0.25 % added to 90 % electrolyte base (0.45 wt % Red 40)), in data set [1] (0.5 % added to 90 % electrolyte base (0.45 wt % Red 40)), in data set [1] (1 % added to 90 % electrolyte base (0.45 wt % Red 40)), in data set [1] (2 % added to 90 % electrolyte base (0.45 wt % Red 40)) and in data set [1] (setting [3]) was “No precipitation” each time. Besides, the “Observations after 2 months” value in data set [1] (setting [4]), in data set [1] (setting [5]) and in data set [1] (setting [6]) was “No precipitation” in each case.

Take `COc1cc(S(=O)(=O)[O-])c(C)cc1N=Nc1c(O)ccc2cc(S(=O)(=O)[O-])ccc12.[Na+].[Na+]` [Red 40]: in data set [2], the “precipitate / complexation in a solution of salt, azo-dye, benzaldehyde, and water” value (“precipitate / complexation in a solution” for short) was “not stable and produces precipitate”; the “precipitation of a single azo-dye from solutions” value (“precipitation of a single azo-dye” for short) is reported as “precipitated”; the “precipitate in a solution of the substance and water” value (“precipitate in a solution” below) is on record as “free of precipitate”.

Consider `O=C(O)c1nn(-c2ccc(S(=O)(=O)O)cc2)c(O)c1N=Nc1ccc(S(=O)(=O)O)cc1` [Yellow 5], for which, in data set [2], the “precipitate / complexation in a solution” value is listed as “no complexations were observed”; the “precipitation of a single azo-dye” value was “precipitated”; the “precipitate in a solution” value is listed as “free of precipitate”.

For the compound `O=S(=O)([O-])c1ccc(N=Nc2c(O)ccc3cc(S(=O)(=O)[O-])ccc23)cc1.[Na+].[Na+]` [Yellow 6], in data set [2], the “precipitate / complexation in a solution” value is recorded as “no complexations were observed”; the “precipitation of a single azo-dye” value is given as “precipitated”; the “precipitate in a solution” value is recorded as “free of precipitate”.

Regarding `O=Cc1ccccc1` [benzaldehyde], in data set [2], the “precipitate in a solution” value is reported as “free of precipitate”. Besides, the “Observations after 2 months” value in data set [1] (setting [3]) is “formed precipitation”; in data set [1] (setting [4]), “formed precipitation”; in data set [1] (setting [5]), “formed precipitation within hours”; in data set [1] (setting [6]) it was “formed precipitation within hours”. The “benzaldehyde content at which the system is free of precipitation” value in data set [1] (90× electrolyte concentrate with 0.45 wt % Red 40, stored for up to 2 months) is “up to 0.11%”.
